From article PMC11062894, “Protein-based bandpass filters for controlling cellular signaling with chemical inputs” (Nature Chemical Biology, 2023)

Test system: GEMS receptors with CBPvene (Bcl2–LD3 and Bcl2high variants), STAT3-driven SEAP in HEK293T cells
Assay: GEMS SEAP reporter assay, CBPvene (Bcl2high, LD3-v and Bcl2-v variants) with venetoclax
Format: cell-based
[1] = Supp Fig 10a, Bcl2-v6, venetoclax 1000 nM
[2] = Supp Fig 10a, Bcl2-v6, venetoclax 3160 nM
[3] = Supp Fig 10a, Bcl2-v6, venetoclax 10000 nM
[4] = Supp Fig 10a, Bcl2, venetoclax 316 nM
[5] = Supp Fig 10a, Bcl2, venetoclax 1000 nM
[6] = Supp Fig 10a, Bcl2, venetoclax 3160 nM
[7] = Supp Fig 10a, Bcl2, venetoclax 10000 nM
[8] = Supp Fig 10b, Bcl2-v1, venetoclax 1 nM
[9] = Supp Fig 10b, Bcl2-v1, venetoclax 3.16 nM
[10] = Supp Fig 10b, Bcl2-v1, venetoclax 10 nM
[11] = Supp Fig 10b, Bcl2-v1, venetoclax 31.6 nM
[12] = Supp Fig 10b, Bcl2-v1, venetoclax 100 nM
[13] = Supp Fig 10b, Bcl2-v1, venetoclax 316 nM
[14] = Supp Fig 10b, Bcl2-v1, venetoclax 1000 nM
[15] = Supp Fig 10b, Bcl2-v1, venetoclax 3160 nM
[16] = Supp Fig 10b, Bcl2-v1, venetoclax 10000 nM
[17] = Supp Fig 10b, Bcl2-v2, venetoclax 1 nM
[18] = Supp Fig 10b, Bcl2-v2, venetoclax 3.16 nM
[19] = Supp Fig 10b, Bcl2-v2, venetoclax 10 nM
[20] = Supp Fig 10b, Bcl2-v2, venetoclax 31.6 nM
[21] = Supp Fig 10b, Bcl2-v2, venetoclax 100 nM
[22] = Supp Fig 10b, Bcl2-v2, venetoclax 316 nM
[23] = Supp Fig 10b, Bcl2-v2, venetoclax 1000 nM
[24] = Supp Fig 10b, Bcl2-v3, venetoclax 1 nM
[25] = Supp Fig 10b, Bcl2-v3, venetoclax 3.16 nM
[26] = Supp Fig 10b, Bcl2-v3, venetoclax 10 nM
[27] = Supp Fig 10b, Bcl2-v3, venetoclax 31.6 nM
[28] = Supp Fig 10b, Bcl2-v3, venetoclax 100 nM
[29] = Supp Fig 10b, Bcl2-v3, venetoclax 316 nM
[30] = Supp Fig 10b, Bcl2-v3, venetoclax 1000 nM
[31] = Supp Fig 10b, Bcl2-v3, venetoclax 3160 nM
[32] = Supp Fig 10b, Bcl2-v3, venetoclax 10000 nM
[33] = Supp Fig 10b, Bcl2-v4, venetoclax 1 nM
[34] = Supp Fig 10b, Bcl2-v4, venetoclax 3.16 nM
[35] = Supp Fig 10b, Bcl2-v4, venetoclax 10 nM
[36] = Supp Fig 10b, Bcl2-v4, venetoclax 31.6 nM

CC1(C)CCC(CN2CCN(c3ccc(C(=O)NS(=O)(=O)c4ccc(NCC5CCOCC5)c([N+](=O)[O-])c4)c(Oc4cnc5[nH]ccc5c4)c3)CC2)=C(c2ccc(Cl)cc2)C1 [Venetoclax]
SEAP [1]: 19.2478 | SEAP normalized (max=100) [1]: 45.9867 | SEAP [2]: 13.59 | SEAP normalized (max=100) [2]: 32.4691 | SEAP [3]: 7.797 | SEAP normalized (max=100) [3]: 18.6277 | SEAP [4]: 206.027 | SEAP normalized (max=100) [4]: 100 | SEAP [5]: 118.152 | SEAP normalized (max=100) [5]: 57.3479 | SEAP [6]: 9.9385 | SEAP normalized (max=100) [6]: 4.824 | SEAP [7]: 6.696 | SEAP normalized (max=100) [7]: 3.25 | SEAP [8]: 44.2279 | SEAP normalized (max=100) [8]: 81.6306 | SEAP [9]: 50.6217 | SEAP normalized (max=100) [9]: 93.4314 | SEAP [10]: 46.5279 | SEAP normalized (max=100) [10]: 85.8756 | SEAP [11]: 52.0969 | SEAP normalized (max=100) [11]: 96.1542 | SEAP [12]: 54.1806 | SEAP normalized (max=100) [12]: 100 | SEAP [13]: 42.1946 | SEAP normalized (max=100) [13]: 77.8778 | SEAP [14]: 16.2179 | SEAP normalized (max=100) [14]: 29.933 | SEAP [15]: 5.677 | SEAP normalized (max=100) [15]: 10.4785 | SEAP [16]: 3.434 | SEAP normalized (max=100) [16]: 6.3381 | SEAP [17]: 36.2682 | SEAP normalized (max=100) [17]: 14.0118 | SEAP [18]: 38.2081 | SEAP normalized (max=100) [18]: 14.7612 | SEAP [19]: 49.7513 | SEAP normalized (max=100) [19]: 19.2208 | SEAP [20]: 115.969 | SEAP normalized (max=100) [20]: 44.8031 | SEAP [21]: 258.841 | SEAP normalized (max=100) [21]: 100 | SEAP [22]: 180.703 | SEAP normalized (max=100) [22]: 69.8126 | SEAP [23]: 50.1494 | SEAP normalized (max=100) [23]: 19.3746 | SEAP [24]: 40.7727 | SEAP normalized (max=100) [24]: 77.7639 | SEAP [25]: 41.3533 | SEAP normalized (max=100) [25]: 78.8713 | SEAP [26]: 40.3779 | SEAP normalized (max=100) [26]: 77.0109 | SEAP [27]: 52.4314 | SEAP normalized (max=100) [27]: 100 | SEAP [28]: 43.8328 | SEAP normalized (max=100) [28]: 83.6002 | SEAP [29]: 28.8093 | SEAP normalized (max=100) [29]: 54.9466 | SEAP [30]: 14.8804 | SEAP normalized (max=100) [30]: 28.3807 | SEAP [31]: 13.0836 | SEAP normalized (max=100) [31]: 24.9537 | SEAP [32]: 6.8 | SEAP normalized (max=100) [32]: 12.9702 | SEAP [33]: 29.6608 | SEAP normalized (max=100) [33]: 89.6354 | SEAP [34]: 26.3749 | SEAP normalized (max=100) [34]: 79.7051 | SEAP [35]: 26.5882 | SEAP normalized (max=100) [35]: 80.3497 | SEAP [36]: 28.0379 | SEAP normalized (max=100) [36]: 84.7308 | SEAP (Supp Fig 10b, Bcl2-v4, venetoclax 100 nM): 26.0079
